Results published in patent US12612661B2, “Compositions and methods for assessing the efficacy of inhibitors of neurotransmitter transporters” (DENOVO BIOPHARMA LLC, priority 2020, dated 2026).

Key:
[1] = test system: patients with MDD; conditions: overall population, CN162006 and CN162007; cited from earlier work
[2] = phase 2 clinical studies; cited from earlier work
[3] = test system: patients with MDD; assay: Phase 2b efficacy studies CN162006 and CN162007, MADRS total score, analysed by rs12217173 genotype; assay type: in vivo, human
Protocol: The Phase 2b program for DB104 consists of two efficacy studies (CN162006 and CN162007), and both efficacy studies have a similar design and include patients with MDD. CN162006 is flexible-dose study where patients with a history of inadequate response to at least one but less than four antidepressants and one prospective treatment (duloxetine) are switched to flexibly-dosed DB104 (0.5-2 mg/d) or remain on duloxetine (Bhagwagar Z. et al. 2015). CN162007 is a fixed dose, dose-response study where patients with a history of inadequate response to at least one but less than four antidepressants and one prospective treatment (duloxetine/escitalopram) are switched to fixed doses of DB104 (0.25, 0.5, 1, 2 mg/day) or remain on duloxetine/escitalopram (FIG. 1B and 1C). […] (Bhagwagar Z. et al. 2015.)
We were provided with a large number of whole blood samples that were collected from the above phase II clinical trials (CN162-006 and CN162-007), and these samples corresponded to 233 unique patients that had received DB104 and completed the trial adequately to measure their response to treatment. Thus, germline DNA samples extracted from blood of patients enrolled in these two trials were used to identify pharmacogenetic biomarker for DB104. For the discovery phase, 188 samples were selected, and the remaining 45 samples would be left for validating any potential SNPs using PCR. The discover and validation datasets were balanced for race and dose/trial number. In discovery phase, 188 samples from DB104 treatment group were genotyped using the Illumina 4.5 million whole genome SNP arrays. Two (2) out of the 188 samples failed QC and were excluded from the genome-wide analysis but added to the validation set. From this genome wide screen from 186 samples, we have identified SNP rs12217173 which has a p-value of 6.609×10^−8, which is very close to genome-wide significance cut-off of 5×10^−8, especially given the limited sample size of this study.
To confirm the finding of rs12217173 as possible pharmacogenetic biomarker to predict DB104 efficacy, we next measured its genotype with Taqman SNP assay using the validation set which consists 47 patients, including two additional samples failed in genome-wide scan QC but passed real time PCR QC. […] Thus, patients with GG genotype were defined as the responders and patients carrying AA or AG genotype are defined as non-responders to DB104 treatment.
To examine whether rs12217173 is merely a prognostic biomarker for the disease instead of specific pharmacogenomic biomarker for DB104, DNA samples from 182 patients from the control group treated with duloxetine/escitalopram were genotyped using the Taqman SNP assays. […] Therefore, rs12217173 associated improvement in MADRS is related to DB104 treatment, and rs12217173 appears to be a pharmacogenomics biomarker for predicting DB104's anti-depression activity, and thus it is named as DGM4 (Denovo Genomic Marker 4).
CN162006 is flexible-dose study where DB104 doses ranged from 0.5-2 mg/d, and CN162007 is a fixed dose, dose-response study where patients were treated with doses of DB104 at 0.25, 0.5, 1, or 2 mg/day. Due to the limitation on samples available for the genome-wide study, the analysis described in previous section was not treating patients taking different doses of DB104 differently. In order to refine our analysis, we have further evaluated the effect of DB104 dose in these two studies. In CN162006, the mean and median average dose per day is 1.5 mg, and 94% patients received doses of 1 to 2 mg per day.

[4] = molecular target: T1, SERT (Homo sapiens, UniProt P31645); assay: In vitro competition binding, membranes from HEK cell lines overexpressing SERT; conditions: radioligand at its Kd concentration; IC50 only in FIG. 1A table
T1 construct: expressed in transfected cells; host or cells: HEK cell line overexpressing the transporter; membranes
T1 sequence (P31645 whole entry): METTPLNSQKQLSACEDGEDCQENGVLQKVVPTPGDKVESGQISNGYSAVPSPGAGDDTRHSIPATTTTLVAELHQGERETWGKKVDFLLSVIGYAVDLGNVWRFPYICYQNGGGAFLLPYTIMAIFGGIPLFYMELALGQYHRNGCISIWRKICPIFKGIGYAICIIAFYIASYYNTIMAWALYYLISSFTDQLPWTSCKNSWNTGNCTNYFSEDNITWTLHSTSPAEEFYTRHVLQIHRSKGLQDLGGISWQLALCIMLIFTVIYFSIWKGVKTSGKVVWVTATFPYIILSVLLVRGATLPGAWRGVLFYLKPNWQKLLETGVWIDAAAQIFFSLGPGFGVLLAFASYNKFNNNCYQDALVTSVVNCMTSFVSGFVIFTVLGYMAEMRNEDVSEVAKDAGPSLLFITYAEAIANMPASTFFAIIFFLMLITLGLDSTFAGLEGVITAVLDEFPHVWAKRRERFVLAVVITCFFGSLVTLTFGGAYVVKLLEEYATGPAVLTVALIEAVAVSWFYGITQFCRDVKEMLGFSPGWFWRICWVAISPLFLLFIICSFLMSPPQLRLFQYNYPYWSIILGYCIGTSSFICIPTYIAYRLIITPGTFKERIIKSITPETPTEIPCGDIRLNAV
Excerpt: (§1) FIG. 1 depicts exemplary DB104 structure, preclinical result, and clinical trial design. […] In vitro Binding Result: Competition binding experiments were utilized to determine the in vitro binding potencies (IC50 values) of BMS-820836 for SERT, DAT, and NET. Membranes prepared from human embryonic kidney (HEK) cell lines overexpressing each transporter were employed in the assays. Radioligands were used at their respective affinity constant (Kd) concentrations for each transporter to enable direct comparisons of the IC50 values between assays. Monoamine Reupdate inhibition: Cell-based assays were used to determine the ability of BMS-820836 to inhibit reuptake of 3H-labeled dopamine ([^3H]DA), norepinephrine ([^3H]NE), and serotonin ([^3H]5-HT).

[5] = molecular target: T2, DAT (Homo sapiens, UniProt Q01959); assay: In vitro competition binding, membranes from HEK cell lines overexpressing DAT; conditions: radioligand at its Kd concentration; IC50 only in FIG. 1A table
T2 construct: expressed in transfected cells; host or cells: HEK cell line overexpressing the transporter; membranes
T2 sequence (Q01959 whole entry): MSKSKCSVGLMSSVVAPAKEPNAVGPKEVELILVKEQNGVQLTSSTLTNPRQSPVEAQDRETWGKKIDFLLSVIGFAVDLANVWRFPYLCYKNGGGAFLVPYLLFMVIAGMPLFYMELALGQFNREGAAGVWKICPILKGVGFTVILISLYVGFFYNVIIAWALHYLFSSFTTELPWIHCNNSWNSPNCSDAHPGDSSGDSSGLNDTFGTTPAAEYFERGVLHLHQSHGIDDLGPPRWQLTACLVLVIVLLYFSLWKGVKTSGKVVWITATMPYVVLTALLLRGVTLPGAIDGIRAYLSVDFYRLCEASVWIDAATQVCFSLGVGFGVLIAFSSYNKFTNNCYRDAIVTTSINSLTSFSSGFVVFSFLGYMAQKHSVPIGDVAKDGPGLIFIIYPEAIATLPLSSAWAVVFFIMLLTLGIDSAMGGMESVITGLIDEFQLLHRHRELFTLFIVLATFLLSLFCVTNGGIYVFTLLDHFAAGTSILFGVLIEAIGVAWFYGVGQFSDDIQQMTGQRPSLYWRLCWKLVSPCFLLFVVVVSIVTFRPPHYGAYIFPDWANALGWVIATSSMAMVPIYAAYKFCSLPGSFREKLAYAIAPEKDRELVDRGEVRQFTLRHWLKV
Excerpt: as §1

[6] = molecular target: T3, NET (Homo sapiens, UniProt P23975); assay: In vitro competition binding, membranes from HEK cell lines overexpressing NET; conditions: radioligand at its Kd concentration; IC50 only in FIG. 1A table
T3 construct: expressed in transfected cells; host or cells: HEK cell line overexpressing the transporter; membranes
T3 sequence (P23975 whole entry): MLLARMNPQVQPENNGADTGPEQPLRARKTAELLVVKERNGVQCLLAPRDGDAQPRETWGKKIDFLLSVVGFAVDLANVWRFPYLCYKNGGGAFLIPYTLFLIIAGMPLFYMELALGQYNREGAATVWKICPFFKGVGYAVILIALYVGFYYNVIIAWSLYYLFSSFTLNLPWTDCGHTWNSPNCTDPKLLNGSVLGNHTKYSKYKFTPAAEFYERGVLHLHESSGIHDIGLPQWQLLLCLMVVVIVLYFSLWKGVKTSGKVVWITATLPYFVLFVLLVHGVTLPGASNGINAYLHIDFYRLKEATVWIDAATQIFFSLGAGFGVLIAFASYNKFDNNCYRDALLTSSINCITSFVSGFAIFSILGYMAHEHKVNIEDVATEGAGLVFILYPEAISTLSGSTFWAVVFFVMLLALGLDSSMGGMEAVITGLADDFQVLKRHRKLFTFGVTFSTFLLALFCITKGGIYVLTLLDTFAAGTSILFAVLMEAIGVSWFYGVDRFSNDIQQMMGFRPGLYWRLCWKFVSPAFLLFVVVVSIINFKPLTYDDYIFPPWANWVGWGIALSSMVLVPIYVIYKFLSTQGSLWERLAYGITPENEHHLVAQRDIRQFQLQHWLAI
Excerpt: as §1

[7] = molecular target: T4, HEK293/hDAT cells (Homo sapiens, UniProt Q01959); assay: Cell-based monoamine reuptake inhibition, [3H]DA uptake; conditions: IC50 only in FIG. 1A table
T4 construct: expressed in transfected cells; host or cells: HEK293/hDAT cells
T4 sequence (Q01959 whole entry): as the sequence (Q01959 whole entry) above
Excerpt: as §1

[8] = test system: C. elegans; conditions: oxidative stress; ANK3/unc-44 expression necessary; cited from earlier work
[9] = GG genotype, week 5 and 6, excluding 0.25 and 0.5 mg

| saturation of SERT binding sites in competition binding [4] | saturation of DAT binding sites in competition binding [5] | saturation of NET binding sites in competition binding [6] | inhibition of uptake of [3H]DA [7] | Structure (SMILES) | MADRS total score change from baseline at week 6 (primary endpoint), DB104 vs. continuation of duloxetine/escitalopram [1] | discontinuations due to adverse events [2] | tolerability [2] | efficacy by dose in patients carrying GG genotype ([3]; CN162007, 0.25, 0.5, 1, 2 mg/day) | MADRS Remission Rate vs SOC treatment group [3, 9] | MADRS Response Rate vs SOC treatment group [3, 9] | MADRS total score reduction vs SOC treatment group [3, 9] | MADRS score change, GG vs AA or AG genotype ([3]; discovery and validation datasets combined) | improvement on MADRS change from the baseline, GG vs AA or AG genotype and vs standard of care ([3]; discovery set (186 patients), GG allele of rs12217173) | MADRS, DB104 treatment group vs SOC treatment group ([3]; pooled 006 and 007 at 1 mg and 2 mg, all genotypes, any time point) | MADRS score reduction from the baseline ([3]; validation set (47 patients), DB104-treated patients carrying GG at rs12217173) | MADRS score reduction from the baseline ([3]; validation set, DB104-treated patients carrying AA or AG genotype) | lifespan [8] |
| --- | --- | --- | --- | --- | --- | --- | --- | --- | --- | --- | --- | --- | --- | --- | --- | --- | --- |
| completely saturated | completely saturated | completely saturated | potently and completely inhibited | CN1Cc2cc(-c3ccc(N)nn3)ccc2[C@H](c2ccc3ccccc3c2)C1 [DB104, liafensine] | neither study demonstrated significant improvement | no evidence of dose-dependent discontinuations due to adverse events | well tolerated | 1 mg and 2 mg group exhibited similar efficacy, and both are much better than 0.25 mg and 0.5 mg group | statistical significance | statistical significance | statistical significance | much improved MADRS score change | much better improvement | no significant differences | ~16 points | eight |  |
|  |  |  |  | CN1CCN2c3ccccc3Cc3ccccc3C2C1 (centres unmarked) [mianserin] |  |  |  |  |  |  |  |  |  |  |  |  | increase lifespan |
